In brackets after ≈: the same amount, converted by molar mass.
Experiments:
[1] = Stability data of solid forms on storage; type: physicochemical
[2] = test system: Staphylococcus aureus ATCC 29213 GyrB T173I; assay: MIC, Protocol #1 microdilution broth; type: cell-based
[3] = test system: Enterococcus faecalis ATCC 29212; assay: MIC, Protocol #1 microdilution broth; type: cell-based; settings: Enterococcus faecalis ATCC 29212, with Laked Horse Blood
[4] = test system: Enterococcus faecium ATCC 49624; assay: MIC, Protocol #1 microdilution broth; type: cell-based
[5] = test system: Bacillus cereus ATCC 14579; assay: MIC, Protocol #1 microdilution broth; type: cell-based
[6] = test system: Bacillus subtilis ATCC 6638; assay: MIC, Protocol #1 microdilution broth; type: cell-based
[7] = test system: Bacillus subtilis (168) ATCC 6051; assay: MIC, Protocol #1 microdilution broth; type: cell-based
[8] = test system: Neisseria gonorrhoeae ATCC 35541; assay: MIC, Protocol #3 agar dilution; type: cell-based
[9] = test system: Neisseria gonorrhoeae ATCC 49226; assay: MIC, Protocol #3 agar dilution; type: cell-based
Escherichia coli CHE30 = assay: MIC, Protocol 2 microdilution broth, Gram negatives; type: cell-based
Excerpt: (§1) The specific protocols used were as follows:
(§2) Drug dilutions, inoculation, MIC determination: • 1.

[10] = test system: Pseudomonas aeruginosa PAO750; assay: as above; type: cell-based
Excerpt: as §1, §2

M. avium Far = assay: MIC, Protocol #4 Mycobacterium species; type: cell-based
M. avium 3404.4 = assay: MIC, Protocol #4 Mycobacterium species; type: cell-based
N. asteroids 2039 = assay: MIC, Protocol #4 Mycobacterium species; type: cell-based
N. nova 10 = assay: MIC, Protocol #4 Mycobacterium species; type: cell-based
M. kansasii 316 = assay: MIC, Protocol #4 Mycobacterium species; type: cell-based
M. kansasii 379 = assay: MIC, Protocol #4 Mycobacterium species; type: cell-based
[11] = test system: M. tuberculosis H37Rv ATCC 25618; assay: MIC, Protocol #4 Mycobacterium species; type: cell-based
[12] = test system: M. tuberculosis Erdman ATCC 35801; assay: MIC, Protocol #4 Mycobacterium species; type: cell-based
M. abscessus BB2 = assay: MIC, Protocol #4 Mycobacterium species; type: cell-based
M. abscessus MC 6005 = assay: MIC, Protocol #4 Mycobacterium species; type: cell-based
M. abscessus MC 5605 = assay: MIC, Protocol #4 Mycobacterium species; type: cell-based
M. abscessus BB3 = assay: MIC, Protocol #4 Mycobacterium species; type: cell-based
M. abscessus BB4 = assay: MIC, Protocol #4 Mycobacterium species; type: cell-based
M. abscessus BB5 = assay: MIC, Protocol #4 Mycobacterium species; type: cell-based
M. abscessus BB1 = assay: MIC, Protocol #4 Mycobacterium species; type: cell-based
M. abscessus BB8 = assay: MIC, Protocol #4 Mycobacterium species; type: cell-based
M. abscessus LT 949 = assay: MIC, Protocol #4 Mycobacterium species; type: cell-based
Enterococcus faecalis = assay: MIC90 panel, Protocol #1 microdilution broth; type: cell-based; settings: 34 isolates
Acinetobacter baumannii = assay: MIC90 panel, Protocol 2 microdilution broth; type: cell-based; settings: 12 isolates
Excerpt: as §1, §2

Enterobacter cloacae = assay: MIC90 panel, Protocol 2 microdilution broth; type: cell-based; settings: 12 isolates
Excerpt: as §1, §2

Escherichia coli = assay: MIC90 panel, Protocol 2 microdilution broth; type: cell-based; settings: 12 isolates
Excerpt: as §1, §2

Haemophilus influenzae = assay: MIC90 panel, Protocol 2 microdilution broth; type: cell-based; settings: 55 isolates
Excerpt: as §1, §2

Klebsiella pneumoniae = assay: MIC90 panel, Protocol 2 microdilution broth; type: cell-based; settings: 12 isolates
Excerpt: as §1, §2

Moraxella catarrhalis = assay: MIC90 panel, Protocol 2 microdilution broth; type: cell-based; settings: 26 isolates
Excerpt: as §1, §2

Proteus mirabilis = assay: MIC90 panel, Protocol 2 microdilution broth; type: cell-based; settings: 12 isolates
Excerpt: as §1, §2

Pseudomonas aeruginosa = assay: MIC90 panel, Protocol 2 microdilution broth; type: cell-based; settings: 12 isolates
Excerpt: as §1, §2

Neisseria meningitidis = assay: MIC90 panel, Protocol #3 agar dilution; type: cell-based; settings: 12 isolates
[13] = test system: Bacteroides and Parabacter spp.; assay: MIC90 panel, Protocol #3 agar dilution; type: cell-based; settings: 26 isolates
Bacteroides fragilis = assay: MIC90 panel, Protocol #3 agar dilution; type: cell-based; settings: 25 isolates
Clostridium difficile = assay: MIC90 panel, Protocol #3 agar dilution; type: cell-based; settings: 16 isolates
Clostridium perfringens = assay: microbe, parasite or virus in culture; type: cell-based
Fusobacterium spp. = assay: MIC90 panel, Protocol #3 agar dilution; type: cell-based; settings: 16 isolates
Peptostreptococcus spp. = assay: MIC90 panel, Protocol #3 agar dilution; type: cell-based; settings: 11 isolates
[14] = test system: Moraxella catarrhalis ATCC 25238; assay: MIC, Protocol 2 microdilution broth, Gram negatives; design: unit not given beside the values
[15] = test system: Moraxella catarrhalis ATCC 49143; assay: as above; design: unit not given beside the values

Question: With `CCNC(=O)Nc1nc2cc(-c3cnc(C(C)(C)O)nc3)c(F)c([C@H]3CCCO3)c2[nH]1` [Compound 24, 1-ethyl-3-[6-fluoro-5-[2-(1-hydroxy-1-methyl-ethyl)pyrimidin-5-yl]-7-[(2R)-tetrahydrofuran-2-yl]-1H-benzimidazol-2-yl]urea] as the compound, how does the “chemical and physical stability” value ([1]; 25° C./60% RH, one week time point) read?
Answer: chemically and physically unstable

Question: What about the chemical stability ([1]; 40° C./ambient, t=2 weeks) of the same compound?
Answer: chemically unstable

Question: What about the MIC [2] of the same compound?
Answer: 0.3 µg/mL (≈ 0.7 µM)

Question: And the MIC [3]?
Answer: 0.028 µg/mL (≈ 0.0653 µM)

Question: What about the MIC ([4]; Enterococcus faecium ATCC 49624) of the same compound?
Answer: 0.11 µg/mL (≈ 0.257 µM)

Question: And the MIC ([4]; Enterococcus faecium ATCC 49624 with Laked Horse Blood)?
Answer: 0.11 µg/mL (≈ 0.257 µM)

Question: And the MIC [5]?
Answer: 0.031 µg/mL (≈ 0.0724 µM)

Question: What about the MIC [6] of the same compound?
Answer: 2 µg/mL (≈ 4.67 µM)

Question: And the MIC [7]?
Answer: 4 µg/mL (≈ 9.34 µM)

Question: And the MIC [8]?
Answer: 0.42 µg/mL (≈ 0.98 µM)

Question: And the MIC [9]?
Answer: 1 µg/mL (≈ 2.33 µM)

Question: What about the MIC (Escherichia coli CHE30) of the same compound?
Answer: 8 µg/mL (≈ 18.7 µM)

Question: And the MIC [10]?
Answer: 0.25 µg/mL (≈ 0.583 µM)

Question: And the MIC (M. avium Far)?
Answer: 0.23 µg/mL (≈ 0.537 µM)

Question: And the MIC (M. avium 3404.4)?
Answer: 0.23 µg/mL (≈ 0.537 µM)

Question: What about the MIC (N. asteroids 2039) of the same compound?
Answer: 1 µg/mL (≈ 2.33 µM)

Question: And the MIC (N. nova 10)?
Answer: 1 µg/mL (≈ 2.33 µM)

Question: What about the MIC (M. kansasii 316) of the same compound?
Answer: 0.06 µg/mL (≈ 0.14 µM)

Question: What about the MIC (M. kansasii 379) of the same compound?
Answer: < 0.015 µg/mL

Question: What about the MIC [11] of the same compound?
Answer: 0.015 µg/mL (≈ 0.035 µM)

Question: And the MIC [12]?
Answer: 0.06 µg/mL (≈ 0.14 µM)

Question: And the MIC (M. abscessus BB2)?
Answer: 1 µg/mL (≈ 2.33 µM)

Question: And the MIC (M. abscessus MC 6005)?
Answer: 1 µg/mL (≈ 2.33 µM)

Question: What about the MIC (M. abscessus MC 5605) of the same compound?
Answer: 1.5 µg/mL (≈ 3.5 µM)

Question: And the MIC (M. abscessus BB3)?
Answer: 0.5 µg/mL (≈ 1.17 µM)

Question: What about the MIC (M. abscessus BB4) of the same compound?
Answer: 2 µg/mL (≈ 4.67 µM)

Question: What about the MIC (M. abscessus BB5) of the same compound?
Answer: 0.5 µg/mL (≈ 1.17 µM)

Question: And the MIC (M. abscessus BB1)?
Answer: 2 µg/mL (≈ 4.67 µM)

Question: And the MIC (M. abscessus BB8)?
Answer: 0.5 µg/mL (≈ 1.17 µM)

Question: And the MIC (M. abscessus LT 949)?
Answer: 1 µg/mL (≈ 2.33 µM)

Question: And the MIC90 (Enterococcus faecalis)?
Answer: 0.06 µg/mL (≈ 0.14 µM)

Question: What about the “MIC Range” value (Enterococcus faecalis) of the same compound?
Answer: 0.015 to 0.12 µg/mL

Question: What about the MIC90 (Acinetobacter baumannii) of the same compound?
Answer: > 8 µg/mL

Question: And the MIC90 (Enterobacter cloacae)?
Answer: > 8 µg/mL

Question: And the MIC90 (Escherichia coli)?
Answer: > 8 µg/mL

Question: What about the MIC90 (Haemophilus influenzae) of the same compound?
Answer: 1 µg/mL (≈ 2.33 µM)

Question: What about the “MIC Range” value (Haemophilus influenzae) of the same compound?
Answer: 0.06 to 2 µg/mL

Question: And the MIC90 (Klebsiella pneumoniae)?
Answer: > 8 µg/mL

Question: What about the MIC90 (Moraxella catarrhalis) of the same compound?
Answer: 0.03 µg/mL (≈ 0.07 µM)

Question: What about the “MIC Range” value (Moraxella catarrhalis) of the same compound?
Answer: ≦0.004-0.03 μg/ml

Question: What about the MIC90 (Proteus mirabilis) of the same compound?
Answer: > 8 µg/mL

Question: And the MIC90 (Pseudomonas aeruginosa)?
Answer: > 8 µg/mL

Question: What about the MIC90 (Neisseria meningitidis) of the same compound?
Answer: 0.03 µg/mL (≈ 0.07 µM)

Question: What about the “MIC Range” value (Neisseria meningitidis) of the same compound?
Answer: 0.008 to 0.06 µg/mL

Question: What about the MIC90 [13] of the same compound?
Answer: 16 µg/mL (≈ 37.3 µM)

Question: And the “MIC Range” value [13]?
Answer: 0.12 to 16 µg/mL

Question: What about the MIC90 (Bacteroides fragilis) of the same compound?
Answer: 16 µg/mL (≈ 37.3 µM)

Question: What about the “MIC Range” value (Bacteroides fragilis) of the same compound?
Answer: 1 to 16 µg/mL

Question: And the “MIC Range” value (Clostridium difficile)?
Answer: 0.06 to 4 µg/mL

Question: What about the MIC90 (Clostridium difficile; Clostridioides difficile) of the same compound?
Answer: 0.25 µg/mL (≈ 0.583 µM)

Question: What about the MIC90 (Clostridium perfringens) of the same compound?
Answer: 0.5 µg/mL (≈ 1.17 µM)

Question: And the “MIC Range” value (Clostridium perfringens; 12 isolates, Protocol 3)?
Answer: 0.12 to 0.5 µg/mL

Question: What about the MIC90 (Fusobacterium spp.) of the same compound?
Answer: > 16 µg/mL

Question: What about the MIC90 (Peptostreptococcus spp.) of the same compound?
Answer: > 16 µg/mL

Question: And the MIC [14]?
Answer: ≦0.016

Question: What about the MIC [15] of the same compound?
Answer: ≦0.016

— patent US9040542B2, “Solid forms of gyrase inhibitor (R)-1-ethyl-3-[6-fluoro-5-[2-(1-hydroxy-1-methyl-ethyl)pryimidin-5-yl]-7-(tetrahydrofuran-2-yl)-1H-benzimidazol-2-yl]urea” (priority 2011, dated 2015)
